Laboratory results published in patent US9701625B2, “Nitrone compounds and their use in personal care” (Dow Global Technologies LLC, priority 2014, dated 2017).

Experiment: Oxygen Radical Absorbance Capacity (ORAC) protocol
Conditions: for TEAC: Trolox equivalent AO capacity calculated from ORAC values; for TEAC values compared to the compounds of the invention: in words
Description: Antioxidant potential is evaluated using the Oxygen Radical Absorbance Capacity (ORAC) protocol. ORAC is a chemical in-vitro method based on the hydrogen atom transfer (HAT) mechanism (see N. Re et al., Free Radical Biology & Medicine, 26 (9/10), 1231 (1997)). ORAC measures antioxidant inhibition of peroxyl radical induced oxidations and thus reflects classical radical chain breaking antioxidant activity by H atom transfer. In this assay, the peroxyl radical reacts with a fluorescent probe to form a non-fluorescent product. This is quantitated using a fluorescence measurement. Antioxidant capacity is determined by decreased rate and amount of product formed over time. This assay depends upon the free radical damage to the fluorescent probe resulting in the change in its fluorescence intensity. The change of fluorescence intensity is an indicator of the degree of free radical damage. In the presence of an antioxidant, the inhibition of free radical damage is reflected in higher fluorescence intensity and can be measured as antioxidant capacity against the free radicals. The uniqueness of ORAC assay is that the reaction is driven to completion. This allows calculation of the area under the curve (AUC) and gives an absolute quantitation of antioxidancy as opposed to relative measurements in many other assays.
As noted, the longer it takes to observe a decrease in fluorescence, the higher the antioxidant (AO) potential. From the AUC for a given antioxidant, the AUC for blank is subtracted to give its ORAC value. The concentration of AO needed to give the same AUC values as Trolox is calculated and used to represent the Trolox equivalent AO Capacity (TEAC). Trolox is ((±)-6-Hydroxy-2,5,7,8-tetramethylchromane-2-carboxylic acid, CAS #53188-07-1), and is used as an internal control.
The ORAC test is conducted in the compounds of Table 1 above (inventive compounds) as well as to Vitamin C, Vitamin E, and the following comparative compounds:
The inventive nitrones in the ORAC test solutions were at a concentration of 30 micromolar, while the concentrations of Trolox, Vitamin C, Vitamin E, BHT, PBN+BHT, and VAL-IPHA were at 100 micromolar. The TEAC values calculated from the ORAC values are listed the Table 2.

[1] = test concentration 100 micromolar
[2] = inventive nitrones at 30 micromolar

Cc1cc(C(C)(C)C)c(O)c(C(C)(C)C)c1 [BHT]
TEAC [1]: 0.11-0.21
TEAC values compared to the compounds of the invention: not very high

CC(C)(C)/[N+]([O-])=C/c1ccccc1 [PBN]
TEAC values compared to the compounds of the invention: not very high

CCCC/C=[N+](\[O-])C(C)C [VAL-IPHA]
TEAC [1]: 0.18
TEAC values compared to the compounds of the invention: not very high

O=C1O[C@H]([C@@H](O)CO)C(O)=C1O [Vitamin C]
TEAC [1]: 0.76

COc1cc(/C=[N+](\[O-])Cc2ccc(O)cc2O)ccc1O [compound 1]
TEAC [2]: 6.45

[O-]/[N+](=C\c1ccc(O)cc1)Cc1ccc(O)cc1 [compound 2]
TEAC [2]: 2.94

Vitamin E
TEAC [1]: 0.13
